This is an account of results in patent publication US20220143003A1, “COMPOSITIONS AND METHODS TO TREAT NON-ALCOHOLIC FATTY LIVER DISEASES (NAFLD)” (Coherus Biosciences, Inc., priority 2018, published 2022).

Common to all, as to format: in vivo, male C57BL/6JRj mice
Data set [1] deals with DIO-NASH mice. The experiment in a line: EchoMRI body composition (MRI body weight, fat, lean and free water mass). As to conditions: for Absolute fat tissue mass at week 11 / Absolute free water mass at week 11 / MRI body weight at week 11 / Relative fat tissue mass at week 11 / Relative lean tissue mass at week 11 / Relative free water mass (% of body weight): group mean, week 11. On the procedure: The body composition of the mice was assessed by an EchoMRI 3-1 Body composition analyzer (EchoMRI, US). Non-anaesthetised mice was placed in a plastic tube inside the MRI scanner for approximately 80 seconds. The body composition is expressed as fat mass, fat free mass (lean mass) and water.

Data set [2] concerns DIO-NASH mice. The experiment in a line: Fibrosis stage, Sirius red histopathological scoring of pre- and post-biopsies. As to conditions: post- vs pre-study biopsy, trend, p=0.07. As for the experimental part: Three weeks prior to study start, a pre-biopsy was performed to confirm NASH and for study inclusion of NASH-affected mice only. Briefly, mice were anesthetized with isoflurane (2-3%) in 100% oxygen. A small abdominal incision was made in the midline and the left lateral lobe of the liver exposed. A cone shaped wedge of liver tissue (approximately 50 mg) was excised from the distal portion of the lobe and fixated in 10% neutral buffered formalin (4% formaldehyde) for histopathological analyses. The cut surface of the liver was instantly electro-coagulated using bipolar coagulation (ERBE VIO 100 electrosurgical unit). The liver was returned to the abdominal cavity, the abdominal wall sutured, and the skin closed with staplers. For post-operative recovery, mice received carprofen (5 mg/ml-0.01 ml/10 g) administered subcutaneously on the day of operation and on post-operation day 1 and 2. For Sirius red staining, slides were incubated in Weigert's iron hematoxylin, washed in tap water, stained in Picro-Sirius red and washed twice in acidified water. […] For scoring of NAFLD Activity Score (NAS) and fibrosis stage, HE and Sirius red stained liver sections, respectively, were scored by a histopathology specialist as outlined in Table 10 using the clinical criteria outlined by Kleiner et al. (2005). […] Fibrosis stage is evaluated separately from NAS.

The test system of data set [3] is DIO-NASH mice. The experiment in a line: Plasma aspartate transaminase (AST) at termination. As to conditions: group mean. As for the experimental part: For plasma biochemistry, tail blood was drawn directly through the capillary of a Microvette/Vacuette of the right dimension and anticoagulant and mixed by inversion 5 times. Blood was placed at 4° C. until centrifugation at 3000×g for 10 minutes at 4° C. The plasma supernatants were transferred to new tubes and immediately frozen on dry ice and stored at −80° C. until analysis.
Mouse insulin was measured in single determinations using the MSD platform (Meso Scale Diagnostics).
Plasma aspartate transaminase (AST) at termination (U/L). Values expressed as mean of n=11-14+SEM.

Data set [4] concerns DIO-NASH mice. The experiment in a line: Intraperitoneal insulin tolerance test (IPITT), week 10. The arrangement: Area under the curve 0-180 min IPITT (blood glucose): unit not given here. As to conditions: for Area under the curve 0-180 min IPITT (blood glucose): week 10, 6 h fasted, i.p. insulin 0.5 U/kg, group mean. As for the experimental part: Mice were fasted 6 hours prior to intraperitoneal insulin administration (0.5 Unit/kg, rapid acting insulin NovoRapid). At the various time points after insulin administration, blood samples were collected into heparinized glass capillary tubes and immediately suspended in glucose/lactate system solution buffer (EKF-diagnostics, Germany). Blood glucose (BG) was measured using a BIOSEN c-Line glucose meter (EKF-diagnostics, Germany) according to the manufacturer's instructions. After the last blood sample, the animals were returned to the normal feeding schedule. The order of the animals was randomized before the procedure and mice were dosed with compounds just after the −60 minutes blood sample.
Intraperitoneal insulin tolerance test (IPITT) in week 10. Left: Temporal course of blood glucose levels during 6 h fasted IPITT. Intraperitoneal insulin bolus (0.5 U/kg) at t=0 min.
Area under the curve calculated from the temporal course from 0-180 min PITT Values expressed as mean of n=12-14+SEM.

Setting [5] is: DIO-NASH mice, compared to DIO mice administered vehicle only.
[6] abbreviates: DIO-NASH mice, CHS-131 High 30 mg/kg, empagliflozin 10 mg/kg, elafibranor 30 mg/kg PO, liraglutide 0.4 mg/kg SC, QD.
Where [7] appears, read: DIO-NASH mice, CHS-131 Low 10 mg/kg PO QD.
Where [8] appears, read: CHS-131 High dose (alone or combined).

For the molecule `O=S(=O)(Nc1cc(Cl)c(Oc2cnc3ccccc3c2)c(Cl)c1)c1ccc(Cl)cc1Cl` [CHS-131], in the data set on DIO-NASH mice [1] (setting [5]), the “Fat tissue mass (fat mass), effect in words” value is on record as “reduced significantly”; the “Free water mass, effect in words” value was “remained stable”; the “Relative fat tissue mass, effect in words” value is recorded as “reduced”. Besides, in the data set with DIO-NASH mice [1] (DIO-NASH mice, compared to vehicle alone, CHS-131 dose not stated), the “Reduction of % fat mass as % of baseline body weight” value is on record as 20%. Besides, in the data set on DIO-NASH mice [1] (setting [6]), the “Absolute fat tissue mass at week 11” value was determined as 6.9 g, the “Absolute free water mass at week 11” value is recorded as 0.0946 g, the “MRI body weight at week 11” value is 38.2 g and the “Relative fat tissue mass at week 11” value is 17.8 % of body weight. Moreover, in the data set on DIO-NASH mice [1] (setting [6]), the “Relative lean tissue mass at week 11” value was 48.1 % of body weight. In the data set with DIO-NASH mice [1] (setting [7]), the “Absolute fat tissue mass at week 11” value came out at 7.07 g, the “Absolute free water mass at week 11” value is 0.165 g, the “MRI body weight at week 11” value was 38.3 g and the “Relative fat tissue mass at week 11” value is on record as 18.4 % of body weight. Besides, the “Relative lean tissue mass at week 11” value in the data set on DIO-NASH mice [1] (setting [7]) is on record as 48.5 % of body weight. For the same molecule, in the data set with DIO-NASH mice [1] (setting [8]), the “Relative free water mass (% of body weight)” value was 0.249 % of body weight. Besides, the “Relative free water mass (% of body weight)” value in the data set with DIO-NASH mice [1] (CHS-131 Low dose) is on record as 0.429 % of body weight. Also, the “Fibrosis stage: mice with improvement” value with DIO-NASH mice [2] is 5/13. The “Plasma aspartate transaminase (AST) at termination” value (shortened to “Plasma aspartate transaminase (AST)”) in the data set on DIO-NASH mice [3] (setting [8]) is recorded as 166 U/L. Also, the “Plasma aspartate transaminase (AST)” value in the data set with DIO-NASH mice [3] (CHS-131 Low dose) was found to be 189 U/L. Also, the “Insulin sensitization, effect in words” value in the data set with DIO-NASH mice [4] (DIO-NASH mice, 12 weeks of treatment, summary of data) is reported as “significant improvement”. For the same molecule, the “Decrease of insulin resistance” value in the data set on DIO-NASH mice [4] (DIO-NASH mice, compared to DIO mice administered vehicle only, significant, not in a dose response manner) is reported as 15%. The “Area under the curve 0-180 min IPITT (blood glucose)” value (shortened to “Area under the curve 0-180 min IPITT”) with DIO-NASH mice [4] (setting [8]) is on record as 767. In the data set with DIO-NASH mice [4] (CHS-131 Low dose), the “Area under the curve 0-180 min IPITT” value was found to be 758.
Regarding `OC[C@H]1O[C@@H](c2ccc(Cl)c(Cc3ccc(O[C@H]4CCOC4)cc3)c2)[C@H](O)[C@@H](O)[C@@H]1O` [Empagliflozin, reference compound], in the data set on DIO-NASH mice [1] (setting [6]), the “Absolute fat tissue mass at week 11” value was 7.81 g, the “Absolute free water mass at week 11” value stood at 0.182 g, the “MRI body weight at week 11” value is 40.1 g and the “Relative fat tissue mass at week 11” value is reported as 19.4 % of body weight. The “Relative lean tissue mass at week 11” value with DIO-NASH mice [1] (setting [6]) is recorded as 47.1 % of body weight. Besides, the “Relative free water mass (% of body weight)” value in the data set on DIO-NASH mice [1] (setting [8]) is recorded as 0.458 % of body weight. Moreover, in the data set with DIO-NASH mice [3] (setting [8]), the “Plasma aspartate transaminase (AST)” value is 230 U/L. In addition, the “Area under the curve 0-180 min IPITT” value with DIO-NASH mice [4] (setting [8]) is on record as 723.
Turning to `CSc1ccc(C(=O)/C=C/c2cc(C)c(OC(C)(C)C(=O)O)c(C)c2)cc1` [Elafibranor, reference compound], in the data set with DIO-NASH mice [1] (setting [6]), the “Absolute fat tissue mass at week 11” value is 3.73 g, the “Absolute free water mass at week 11” value came out at 0.0923 g, the “MRI body weight at week 11” value is on record as 32.5 g and the “Relative fat tissue mass at week 11” value is given as 11.3 % of body weight. Further, the “Relative lean tissue mass at week 11” value with DIO-NASH mice [1] (setting [6]) was 52.6 % of body weight. The “Relative free water mass (% of body weight)” value in the data set on DIO-NASH mice [1] (setting [8]) is reported as 0.292 % of body weight. For the same molecule, the “Plasma aspartate transaminase (AST)” value in the data set on DIO-NASH mice [3] (setting [8]) is 205 U/L. The “Area under the curve 0-180 min IPITT” value in the data set on DIO-NASH mice [4] (setting [8]) turned out to be 757.
